According to patent publication US8172395B2, “Medical devices having antimicrobial coatings thereon” (priority 2002, dated 2012):
Where no end group is shown, it is not given here.

How the values were obtained:
[1] = system: L929 mammalian fibroblasts; experiment: Cytotoxicity, USP Elution Test (MEM elution); settings: 5, 0.5 and 0.05 μg/ml; 25% test solution in medium; L929 cells examined after 48 hours
Description: Cytotoxicity of Cecropin A melittin hybrid is evaluated according to the USP Elution Test (“Biological Reactivity Tests, In-Vitro: Elution Test”, The United States Pharmacopeial Convention, Inc.). Cell cultures, L929 mammalian fibroblasts (ATCC cell line CCL1, NCTC clone 929), are grown to a near confluent monolayer in 6 well plates (individual wells are 35 mm diameter). […] The serum-supplemented cell culture medium is prepared by mixing 1000 mL Eagle's sterile minimum essential medium (MEM), 100 mL serum, 10 ml L-glutamine solution and antibiotic-antimycotic solution.

[2] = system: P. aeruginosa (PA) (ATCC# 19660); experiment: Mouse organ culture model: adherence of P. aeruginosa to scarified mouse cornea; settings: PA pre-incubated 1 h, PBS control 42.4
Description: Using the mouse organ culture model, this assay assesses the ability of a compound to inhibit the binding of P. aeruginosa to scarified eyes. Cecropin A melittin hybrid has been tested at three concentrations: 10, 2, and 0.5 μg/ml.
The solutions are tested for their ability to prevent adherence of P. aeruginosa (PA) (ATCC# 19660) to scarified mouse cornea. For these studies 1×10^7 cfu of PA is combined with each of the solutions at each concentration and incubated for 1 h at room temperature. In addition, 1×10^7 cfu of PA are incubated in PBS for 1 h at room temperature as a control. Following this incubation period, the PA are washed twice to remove the peptide solutions. For each washing step, the cultures are centrifuged at 6,000 rpm for 10 min and pellets are resuspended in 1.0 ml of PBS.
Mouse corneas are scarified under a stereoscopic microscope at 40× magnification. The corneal surface of the eyes is incised with three parallel one-mm wounds. The eyes are then enucleated and placed into sterile culture wells containing 2 ml of MEM.
A 5.0 μl aliquot of each bacterial suspension is delivered onto the surface of the cornea. Eyes are routinely incubated in vitro for 1 h at 37° C. at 95% O2 (5% CO2) after bacterial application. Scanning electron microscopy (SEM) is used to quantitate adherent bacteria.
To determine the efficacy of the peptide, the numbers of bacteria at each concentration is compared from 2 separate identical experiments to the PBS control, p≦0.05 is considered significant. There is a slight reduction at 0.5 μg, but significant difference in adherence at 2 and 10 μg from the control. The values for the bacteria adhered at 0.5 μg is 42.4 and 32.6 for the PBS control and the peptide solution respectively. At 2 μg, it is 42.4 and 15.8 for the PBS control and the peptide solution respectively. At 10 μg, it is 42.4 and 5.8 for the PBS control and the peptide solution respectively.

[3] = system: P. aeruginosa GSU #3 (corneal isolate); type: cell-based, Pseudomnas aeruginosa; settings: 37° C., 24 h; tested 1-20 μg/ml
Description: (§1) Two (2) peptides, Cecropin P1 and Cecropin A-melittin hybrid, from American Peptides Company, Inc. are tested against strains of Pseudomnas aeruginosa GSU # 3 (corneal isolate) and # 9027 (a Gram negative organism), Staphylococcus aureus #6538, and Staphylococcus epidermidis # 17917. The first two strains are Gram negative organisms. The last two strains are Gram positive organisms. These organisms are chosen because they are the most common etiological agents causing infection in the eye. The peptides are kept at −70° C. until they are ready to be used. The peptide concentrations tested are 20, 16, 8, 4, 2 and 1 μg/ml in Delbeco's Phosphate Buffered Saline (PBS).
(§2) The bacteria are harvested, washed twice and adjusted to an O.D. of 10^8 cells/ml. Cells then are serially diluted and adjusted to about 5×10^5 cfu/ml. The cells are inoculated into microtiter plates containing serially decreasing peptide concentrations. The inoculum for the bacterial strains are suspended in Mueller Hinton broth, and the final volume in each well is 200 μl. The microtiter plates are incubated at 37° C. for 24 h. The growth is checked as optical density spectrophotometrically in a microtiter plate reader. The O.D. is compared to the blank and to the growth well to determine the MIC. […]

S. epidermidis #17917 = experiment: MIC of peptides in Mueller Hinton broth, microtiter plates; type: cell-based, Staphylococcus epidermidis; settings: 37° C., 24 h; tested 1-20 μg/ml
Description: as §1, §2

S. aureus #6538 = experiment: as above; type: cell-based, Staphylococcus aureus; settings: 37° C., 24 h; tested 1-20 μg/ml
Description: as §1, §2

| Compound | Cytotoxicity (MEM elution test) [1] | bacteria adhered (SEM count) ([2]; 0.5 μg/ml peptide) | bacteria adhered (SEM count) ([2]; 2 μg/ml peptide) | bacteria adhered (SEM count) ([2]; 10 μg/ml peptide) | Minimal inhibition concentration, P. aeruginosa GSU #3 [3] | Minimal inhibition concentration, S. epidermidis #17917 (S. epidermidis #17917) | Minimal inhibition concentration, S. aureus #6538 (S. aureus #6538) |
| --- | --- | --- | --- | --- | --- | --- | --- |
| CC[C@H](C)[C@H](N)C(=O)N[C@@H](CC(C)C)C(=O)N1CCC[C@H]1C(=O)N[C@@H](Cc1c[nH]c2ccccc12)C(=O)N[C@@H](CCCCN)C(=O)N[C@@H](Cc1c[nH]c2ccccc12)C(=O)N1CCC[C@H]1C(=O)N[C@@H](Cc1c[nH]c2ccccc12)C(=O)N[C@@H](Cc1c[nH]c2ccccc12)C(=O)N1CCC[C@H]1C(=O)N[C@@H](Cc1c[nH]c2ccccc12)C(=O)N[C@@H](CCCN=C(N)N)C(=O)N[C@@H](CCCN=C(N)N)C(N)=O [Indolicidin] | non-cytotoxic |  |  |  |  |  |  |
| KWKLFKKIGAVLKVL-NH2 (C-terminus assumed) [Cecropin A Melittin Hybrid] | non-cytotoxic | 32.6 | 15.8 | 5.8 | >20 μg/ml^1 μg/mL |  |  |
| SWLSKTAKKLENSAKKRISEGIAIAIQGGPR [Cecropin P1] |  |  |  |  |  | >20 μg/ml^1 μg/mL | >20 μg/ml^1 μg/mL |
